Entries after “also recorded” stand apart in the source; their conditions may differ. Read-outs that look alike come from different tables or passages of the source.

This is an account of results in patent US11980774B2, “Illumination devices and related methods for phototherapeutic light treatments in the presence of vitamins” (priority 2021, dated 2024).

The subject of one test is MERS-CoV. The format is cell-based. Conditions: 1 μM riboflavin with various amounts of ascorbate in artificial saliva; 425 nm light 15 J/cm^2; FIG. 4B.
The subject of the next test is influenza A. It counts as cell-based. The conditions noted are these: for reduction in viral loads of influenza A: 425 nm light 30 J/cm^2.
A further test relates to human rhinovirus 1B. The format is cell-based.
In a further test the test system is influenza B. Conditions: 10 μM riboflavin; 425 nm light 30 J/cm^2; FIG. 6F.
Test [1] concerns human coronavirus OC43 (HCoV-OC43). As to the kind of experiment: 425 nm light inhibition of HCoV-OC43 in the presence of vitamins in artificial saliva, virus titer (PFU/mL). It counts as cell-based. The conditions noted are these: 10 μM RFN in artificial saliva, doses as low as 7.5 J/cm^2 (up to 45 J/cm^2), FIG. 1B. The text has this: FIGS. 1A to 1D are provided in the context of HCoV-OC43, which is generally known as one of the viruses associated with the common cold. FIG. 1A is a chart illustrating an experimental control where light treatments were applied to HCoV-OC43 samples in the absence of any vitamins. […] A first sample included HCoV-OC43 in only its corresponding media, and the other two samples further included different artificial saliva sources (labeled as Saliva 1 and Saliva 2 in FIG. 1A).
FIG. 1B is a chart illustrating light treatments on HCoV-OC43 samples where various amounts of riboflavin (abbreviated as RFN) were diluted in a same type of artificial saliva and added to the HCoV-OC43 samples.
FIG. 1C is a chart illustrating light treatments on HCoV-OC43 samples where various amounts of ascorbate (abbreviated as AA) and 10 μM of RFN were diluted in a same type of artificial saliva and added to the HCoV-OC43 samples. […] The constant amount of RFN (10 μM) was selected based on the improvements illustrated in FIG. 1B.
FIG. 1D is a chart illustrating light treatments on HCoV-OC43 samples where various amounts of ascorbate were diluted in a same type of artificial saliva and added to the HCoV-OC43 samples in the absence of riboflavin.

`Cc1cc2nc3c(=O)[nH]c(=O)nc-3n(C[C@H](O)[C@H](O)[C@H](O)CO)c2cc1C` [riboflavin]: in the test on MERS-CoV, the “reductions in viral loads of MERS-CoV” value was “greater than 99.999%”. Besides, the “inhibition in viral load of influenza A by riboflavin dosing alone” value with influenza A (0 J/cm^2 (no light), 0.1-10 μM riboflavin, FIG. 6E) was “some inhibition”. In addition, the “reduction in viral loads of influenza A” value in the test on influenza A (1 μM riboflavin, FIG. 6E) is on record as “some reduction”; in the test on influenza A (10 μM riboflavin, FIG. 6E), “substantial reduction; also recorded: dramatic reduction”. Moreover, the “change in viral loads of influenza A” value with influenza A (10 μM riboflavin, 425 nm light 32 J/cm^2, FIG. 6D) is “dramatic decreases”. Moreover, in the test with human rhinovirus 1B (10 μM riboflavin with various ascorbate in Saliva 2, 425 nm light 32 J/cm^2, FIG. 5B), the “reduction in viral loads of human rhinovirus 1B” value is “some reduction”. For the same molecule, in the test on human rhinovirus 1B (0.1, 1, 10 μM RFN in Saliva 1, 425 nm light up to 30 J/cm^2, FIG. 5A), the “influence on viral loads of human rhinovirus 1B” value is recorded as “little to no influence”. Further, the “reduction in viral loads of influenza B” value with influenza B is “dramatic reduction”. In addition, the “change in HCoV-OC43 viral load compared with the 0 μM RFN sample” value in test [1] is “significant decreases”.
